Laboratory results reported in patent US9408387B2, “Safening 6-amino-2-(substituted phenyl)-5-substituted-4-pyrimidinecarboxylate herbicide injury on cereal crops” (Dow AgroSciences LLC, priority 2009, dated 2016).

Assays:
Type in all cases: in vivo
Details in all cases: CQC-M 0
[1] = tested on: kochia (Kochia scoparia L; KCHSC); assay: Postemergence herbicidal activity, greenhouse, visual injury: kochia
Protocol: (§1) Evaluation of Postemergence Herbicidal Safening in Cereal Crops
(§2) Seeds of the desired test plant species were planted in Sun Gro MetroMix® 306 planting mixture, which typically has a pH of 6.0 to 6.8 and an organic matter content of about 30 percent, in plastic pots with a surface area of 103.2 square centimeters (cm^2). When required to ensure good germination and healthy plants, a fungicide treatment and/or other chemical or physical treatment was applied. The plants were grown for 7-36 days (d) in a greenhouse with an approximate 14-hour (h) photoperiod which was maintained at about 18° C. during the day and 17° C. during the night. Nutrients and water were added on a regular basis and supplemental lighting was provided with overhead metal halide 1000-Watt lamps as necessary. The plants were employed for testing when they reached the second or third true leaf stage.
(§3) Treatments consisted of the acids or esters of compounds 1-10 and cloquintocet-mexyl (CQC-M), fenchlorazole-ethyl, mefenpyr-diethyl alone and in combination. Weighed amounts of acid or methyl esters of the compounds of formula (I) were dissolved in a volume of 97:3 v/v acetone/dimethylsulfoxide (DMSO) to obtain concentrated solutions. […] The concentrated solutions of the test compound were diluted with the addition of an aqueous mixture containing acetone, water, isopropyl alcohol, DMSO, Agri-Dex crop oil concentrate, and Triton® X-77 surfactant in a 64.7:26.0:6.7:2.0:0.7:0.01 v/v ratio. Test compounds were diluted to the appropriate application rate with a dilution solution which was prepared by mixing the appropriate volume of 97:3 v/v acetone/DMSO and the appropriate volume of an aqueous mixture containing acetone, water, isopropyl alcohol, DMSO, Agri-Dex crop oil concentrate, and Triton® X-77 surfactant in a 64.7:26.0:6.7:2.0:0.7:0.01 v/v ratio. Compound requirements are based upon a 12 mL application volume at a rate of 187 liters per hectare (L/ha). The concentrated solutions of the safener were prepared following the same procedure. Weighed amounts of safener were dissolved in a volume of 97:3 v/v acetone/DMSO to obtain concentrated safener solutions.
(§4) Spray solutions of the herbicide safener and test compound mixtures were prepared by adding the concentrated solutions to the appropriate amount of dilution solution to form 12 mL spray solution with active ingredients in combinations.
(§5) Formulated compounds were applied to the plant material with an overhead Mandel track sprayer equipped with 8002E nozzles calibrated to deliver 187 L/ha over an application area of 0.503 square meters (m^2) at a spray height of 18 inches (43 centimeters (cm)) above average plant canopy. Control plants were sprayed in the same manner with the solvent blank.
(§6) The treated plants and control plants were placed in a greenhouse as described above and watered by sub-irrigation to prevent wash-off of the test compounds. After 20-22 d, the condition of the test plants as compared with that of the control plants was determined visually and scored on a scale of 0 to 100 percent where 0 corresponds to no injury and 100 corresponds to complete kill.
(§7) Colby's equation was used to determine the herbicidal effects expected from the mixtures (Colby, S. R. Calculation of the synergistic and antagonistic response of herbicide combinations. Weeds 1967, 15, 20-22.).
(§8) The following equation was used to calculate the expected activity of mixtures containing two active ingredients, A and B: Expected=A+B−(A×B/100)
(§9) A=observed efficacy of active ingredient A at the same concentration as used in the mixture.
(§10) B=observed efficacy of active ingredient B at the same concentration as used in the mixture.

[2] = tested on: purple deadnettle (Lamium purpureum L; LAMPU); assay: Postemergence herbicidal activity, greenhouse, visual injury: purple deadnettle
Protocol: as §1, §2, §3, §4, §5, §6, §7, §8, §9, §10

[3] = tested on: bird's-eye speedwell (Veronica persica L; VERPE); assay: Postemergence herbicidal activity, greenhouse, visual injury: bird's-eye speedwell
Protocol: as §1, §2, §3, §4, §5, §6, §7, §8, §9, §10

MATCH = assay: Postemergence herbicidal activity, greenhouse, visual injury: MATCH
Protocol: as §1, §2, §3, §4, §5, §6, §7, §8, §9, §10

CIRAR = assay: Postemergence herbicidal activity, greenhouse, visual injury: CIRAR
Protocol: as §1, §2, §3, §4, §5, §6, §7, §8, §9, §10

SASKR = assay: Postemergence herbicidal activity, greenhouse, visual injury: SASKR
Protocol: as §1, §2, §3, §4, §5, §6, §7, §8, §9, §10

[4] = tested on: wild mustard (Sinapis arvensis L.; SINAR); assay: Postemergence herbicidal activity, greenhouse, visual injury: SINAR
[5] = tested on: spring wheat (Triticum aestivum L; TRZAS); assay: Postemergence herbicidal safening in cereal crops, greenhouse, visual injury: spring wheat
Protocol: as §1, §2, §3, §4, §5, §6, §7, §8, §9, §10

[6] = tested on: spring barley (Hordeum vulgare L; HORVS); assay: Postemergence herbicidal safening in cereal crops, greenhouse, visual injury: spring barley
Protocol: as §1, §2, §3, §4, §5, §6, §7, §8, §9, §10

[7] = tested on: corn poppy (Papaver rhoeas L; PAPRH); assay: Postemergence herbicidal activity, greenhouse, visual injury: corn poppy
Protocol: as §1, §2, §3, §4, §5, §6, §7, §8, §9, §10

[8] = tested on: wild pansy (Viola tricolor; VIOTR); assay: Postemergence herbicidal activity, greenhouse, visual injury: VIOTR

Compound: COc1c(N)nc(-c2ccc(Cl)c(F)c2F)nc1C(=O)O [Compound 10, 6-amino-2-(4-chloro-2,3-difluorophenyl)-5-methoxypyrimidine-4-carboxylic acid]
- KCHSC Ob (Observed values, % control) ([1]; Compound 10 8.75 g ae/ha): 98%
- KCHSC Ob (Observed values, % control) ([1]; Compound 10 17.5 g ae/ha): 98%
- KCHSC Ob (Observed values, % control) ([1]; Compound 10 35 g ae/ha): 100%
- KCHSC Ob (Observed values, % control) ([1]; Compound 10 70 g ae/ha): 100%
- KCHSC Ob (Observed values, % control) ([1]; Compound 10 140 g ae/ha): 100%
- LAMPU Ob (Observed values, % control) ([2]; Compound 10 8.75 g ae/ha): 95%
- LAMPU Ob (Observed values, % control) ([2]; Compound 10 17.5 g ae/ha): 95%
- LAMPU Ob (Observed values, % control) ([2]; Compound 10 35 g ae/ha): 100%
- LAMPU Ob (Observed values, % control) ([2]; Compound 10 70 g ae/ha): 100%
- LAMPU Ob (Observed values, % control) ([2]; Compound 10 140 g ae/ha): 100%
- VERPE Ob (Observed values, % control) ([3]; Compound 10 8.75 g ae/ha): 93%
- VERPE Ob (Observed values, % control) ([3]; Compound 10 17.5 g ae/ha): 97%
- VERPE Ob (Observed values, % control) ([3]; Compound 10 35 g ae/ha): 100%
- VERPE Ob (Observed values, % control) ([3]; Compound 10 70 g ae/ha): 100%
- VERPE Ob (Observed values, % control) ([3]; Compound 10 140 g ae/ha): 100%
- MATCH Ob (Observed values, % control) (MATCH; Compound 10 8.75 g ae/ha): 70%
- MATCH Ob (Observed values, % control) (MATCH; Compound 10 17.5 g ae/ha): 90%
- MATCH Ob (Observed values, % control) (MATCH; Compound 10 35 g ae/ha): 93%
- MATCH Ob (Observed values, % control) (MATCH; Compound 10 70 g ae/ha): 95%
- MATCH Ob (Observed values, % control) (MATCH; Compound 10 140 g ae/ha): 100%
- CIRAR Ob (Observed values, % control) (CIRAR; Compound 10 8.75 g ae/ha): 80%
- CIRAR Ob (Observed values, % control) (CIRAR; Compound 10 17.5 g ae/ha): 85%
- CIRAR Ob (Observed values, % control) (CIRAR; Compound 10 35 g ae/ha): 90%
- CIRAR Ob (Observed values, % control) (CIRAR; Compound 10 70 g ae/ha): 90%
- CIRAR Ob (Observed values, % control) (CIRAR; Compound 10 140 g ae/ha): 100%
- SASKR Ob (Observed values, % control) (SASKR; Compound 10 8.75 g ae/ha): 85%
- SASKR Ob (Observed values, % control) (SASKR; Compound 10 17.5 g ae/ha): 87%
- SASKR Ob (Observed values, % control) (SASKR; Compound 10 35 g ae/ha): 90%
- SASKR Ob (Observed values, % control) (SASKR; Compound 10 70 g ae/ha): 93%
- SASKR Ob (Observed values, % control) (SASKR; Compound 10 140 g ae/ha): 95%
- SINAR Ob (Observed values, % control) ([4]; Compound 10 8.75 g ae/ha): 100%
- SINAR Ob (Observed values, % control) ([4]; Compound 10 17.5 g ae/ha): 100%
- SINAR Ob (Observed values, % control) ([4]; Compound 10 35 g ae/ha): 100%
- SINAR Ob (Observed values, % control) ([4]; Compound 10 70 g ae/ha): 100%
- SINAR Ob (Observed values, % control) ([4]; Compound 10 140 g ae/ha): 100%
- TRZAS Ob (Observed values, % control) ([5]; Compound 10 8.75 g ae/ha): 45%
- TRZAS Ob (Observed values, % control) ([5]; Compound 10 17.5 g ae/ha): 55%
- TRZAS Ob (Observed values, % control) ([5]; Compound 10 35 g ae/ha): 65%
- TRZAS Ob (Observed values, % control) ([5]; Compound 10 70 g ae/ha): 70%
- TRZAS Ob (Observed values, % control) ([5]; Compound 10 140 g ae/ha): 75%
- HORVS Ob (Observed values, % control) ([6]; Compound 10 8.75 g ae/ha): 25%
- HORVS Ob (Observed values, % control) ([6]; Compound 10 17.5 g ae/ha): 30%
- HORVS Ob (Observed values, % control) ([6]; Compound 10 35 g ae/ha): 60%
- HORVS Ob (Observed values, % control) ([6]; Compound 10 70 g ae/ha): 75%
- HORVS Ob (Observed values, % control) ([6]; Compound 10 140 g ae/ha): 85%
- PAPRH Ob (Observed values, % control) ([7]; Compound 10 8.75 g ae/ha): 100%
- PAPRH Ob (Observed values, % control) ([7]; Compound 10 17.5 g ae/ha): 100%
- PAPRH Ob (Observed values, % control) ([7]; Compound 10 35 g ae/ha): 100%
- PAPRH Ob (Observed values, % control) ([7]; Compound 10 70 g ae/ha): 100%
- PAPRH Ob (Observed values, % control) ([7]; Compound 10 140 g ae/ha): 100%
- VIOTR Ob (Observed values, % control) ([8]; Compound 10 8.75 g ae/ha): 70%
- VIOTR Ob (Observed values, % control) ([8]; Compound 10 17.5 g ae/ha): 75%
- VIOTR Ob (Observed values, % control) ([8]; Compound 10 35 g ae/ha): 85%
- VIOTR Ob (Observed values, % control) ([8]; Compound 10 70 g ae/ha): 93%
- VIOTR Ob (Observed values, % control) ([8]; Compound 10 140 g ae/ha): 97%
